# Test results from ChEMBL document CHEMBL5126529, “Drug discovery of histone lysine demethylases (KDMs) inhibitors (progress from 2018 to present)” (Eur J Med Chem, 2022).
# Assays:
# [1] = biological target: T1, Lysine-specific demethylase 4A (Homo sapiens, UniProt O75164); assay: Inhibition of KDM4A (1 to 359 residues) (unknown origin) using ARTKQTARK(me3)-STGGKAPRKQLA-GGK(biotin) peptide as substrate preincubated for 10 mins followed by substrate addition measured after 45 mins by LANCE Ultra assay
# T1 sequence (O75164 whole entry): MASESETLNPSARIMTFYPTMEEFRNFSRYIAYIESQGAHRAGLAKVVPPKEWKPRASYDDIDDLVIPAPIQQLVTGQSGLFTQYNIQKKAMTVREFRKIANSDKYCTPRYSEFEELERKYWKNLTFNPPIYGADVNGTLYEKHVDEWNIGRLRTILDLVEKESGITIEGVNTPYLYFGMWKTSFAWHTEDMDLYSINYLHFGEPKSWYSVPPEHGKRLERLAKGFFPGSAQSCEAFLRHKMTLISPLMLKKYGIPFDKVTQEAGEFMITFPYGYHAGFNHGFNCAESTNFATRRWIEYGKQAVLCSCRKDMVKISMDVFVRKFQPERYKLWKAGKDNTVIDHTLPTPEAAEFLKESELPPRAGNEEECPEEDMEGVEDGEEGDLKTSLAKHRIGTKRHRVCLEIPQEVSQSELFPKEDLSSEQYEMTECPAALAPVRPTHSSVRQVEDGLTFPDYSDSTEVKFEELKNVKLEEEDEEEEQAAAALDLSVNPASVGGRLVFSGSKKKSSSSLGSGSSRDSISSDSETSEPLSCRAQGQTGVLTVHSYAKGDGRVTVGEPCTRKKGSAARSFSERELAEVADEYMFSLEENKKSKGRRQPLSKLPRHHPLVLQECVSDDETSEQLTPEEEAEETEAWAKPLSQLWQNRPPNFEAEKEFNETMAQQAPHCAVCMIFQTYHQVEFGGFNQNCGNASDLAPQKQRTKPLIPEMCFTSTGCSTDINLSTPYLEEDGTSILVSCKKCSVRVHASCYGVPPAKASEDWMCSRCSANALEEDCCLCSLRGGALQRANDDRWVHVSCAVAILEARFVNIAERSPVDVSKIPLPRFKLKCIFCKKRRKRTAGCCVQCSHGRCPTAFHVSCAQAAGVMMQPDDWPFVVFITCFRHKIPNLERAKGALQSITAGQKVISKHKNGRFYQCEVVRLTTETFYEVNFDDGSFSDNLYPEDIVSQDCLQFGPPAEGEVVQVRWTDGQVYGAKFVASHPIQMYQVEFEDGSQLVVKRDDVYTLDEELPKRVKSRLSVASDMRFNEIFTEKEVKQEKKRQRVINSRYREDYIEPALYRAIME
# [2] = biological target: T2, Lysine-specific demethylase 5A (Homo sapiens, UniProt P29375); assay: Inhibition of full-length KDM5A ([…])(unknown origin) using ARTK(me3)-QTARKSTGGKAPRKQLA-GGK(biotin) as substrate preincubated for 10 mins followed by substrate addition measured after 45 mins by LANCE Ultra assay
# [3] = biological target: Lysine-specific demethylase 6B (Homo sapiens, UniProt O15054); assay: Inhibition of KDM6B (1043 to end residues) (unknown origin) using ATKAARK(me3)-SAPATGGVKKPHRYRPG-GK(biotin) as substrate preincubated for 10 mins followed by substrate addition measured after 45 mins by LANCE Ultra assay
# [4] = biological target: Lysine-specific demethylase 2A (Homo sapiens, UniProt Q9Y2K7); assay: Inhibition of KDM2A (unknown origin)
# [5] = biological target: Lysine-specific demethylase 2B (Homo sapiens, UniProt Q8NHM5); assay: Inhibition of KDM2B (unknown origin)
# [6] = biological target: Lysine-specific demethylase 5C (Homo sapiens, UniProt P41229); assay: Inhibition of N-terminal FLAG/His-tagged full-length human KDM5C (2 to 1560 residues) expressed in baculovirus infected Sf9 insect cells using peptide substrate incubated for 2 hrs by Alpha Screen assay
# [7] = biological target: T2, Lysine-specific demethylase 5A; assay: Inhibition of full-length human KDM5A expressed in recombinant baculovirus expression system using […] peptide as substrate incubated for 30 to 45 mins by TR-FRET assay; set-up: species or system Sf9
# [8] = biological target: T1, Lysine-specific demethylase 4A; assay: Inhibition of KDM4A (unknown origin) incubated for 30 mins by fluorescence based assay
# T2 sequence (P29375 whole entry): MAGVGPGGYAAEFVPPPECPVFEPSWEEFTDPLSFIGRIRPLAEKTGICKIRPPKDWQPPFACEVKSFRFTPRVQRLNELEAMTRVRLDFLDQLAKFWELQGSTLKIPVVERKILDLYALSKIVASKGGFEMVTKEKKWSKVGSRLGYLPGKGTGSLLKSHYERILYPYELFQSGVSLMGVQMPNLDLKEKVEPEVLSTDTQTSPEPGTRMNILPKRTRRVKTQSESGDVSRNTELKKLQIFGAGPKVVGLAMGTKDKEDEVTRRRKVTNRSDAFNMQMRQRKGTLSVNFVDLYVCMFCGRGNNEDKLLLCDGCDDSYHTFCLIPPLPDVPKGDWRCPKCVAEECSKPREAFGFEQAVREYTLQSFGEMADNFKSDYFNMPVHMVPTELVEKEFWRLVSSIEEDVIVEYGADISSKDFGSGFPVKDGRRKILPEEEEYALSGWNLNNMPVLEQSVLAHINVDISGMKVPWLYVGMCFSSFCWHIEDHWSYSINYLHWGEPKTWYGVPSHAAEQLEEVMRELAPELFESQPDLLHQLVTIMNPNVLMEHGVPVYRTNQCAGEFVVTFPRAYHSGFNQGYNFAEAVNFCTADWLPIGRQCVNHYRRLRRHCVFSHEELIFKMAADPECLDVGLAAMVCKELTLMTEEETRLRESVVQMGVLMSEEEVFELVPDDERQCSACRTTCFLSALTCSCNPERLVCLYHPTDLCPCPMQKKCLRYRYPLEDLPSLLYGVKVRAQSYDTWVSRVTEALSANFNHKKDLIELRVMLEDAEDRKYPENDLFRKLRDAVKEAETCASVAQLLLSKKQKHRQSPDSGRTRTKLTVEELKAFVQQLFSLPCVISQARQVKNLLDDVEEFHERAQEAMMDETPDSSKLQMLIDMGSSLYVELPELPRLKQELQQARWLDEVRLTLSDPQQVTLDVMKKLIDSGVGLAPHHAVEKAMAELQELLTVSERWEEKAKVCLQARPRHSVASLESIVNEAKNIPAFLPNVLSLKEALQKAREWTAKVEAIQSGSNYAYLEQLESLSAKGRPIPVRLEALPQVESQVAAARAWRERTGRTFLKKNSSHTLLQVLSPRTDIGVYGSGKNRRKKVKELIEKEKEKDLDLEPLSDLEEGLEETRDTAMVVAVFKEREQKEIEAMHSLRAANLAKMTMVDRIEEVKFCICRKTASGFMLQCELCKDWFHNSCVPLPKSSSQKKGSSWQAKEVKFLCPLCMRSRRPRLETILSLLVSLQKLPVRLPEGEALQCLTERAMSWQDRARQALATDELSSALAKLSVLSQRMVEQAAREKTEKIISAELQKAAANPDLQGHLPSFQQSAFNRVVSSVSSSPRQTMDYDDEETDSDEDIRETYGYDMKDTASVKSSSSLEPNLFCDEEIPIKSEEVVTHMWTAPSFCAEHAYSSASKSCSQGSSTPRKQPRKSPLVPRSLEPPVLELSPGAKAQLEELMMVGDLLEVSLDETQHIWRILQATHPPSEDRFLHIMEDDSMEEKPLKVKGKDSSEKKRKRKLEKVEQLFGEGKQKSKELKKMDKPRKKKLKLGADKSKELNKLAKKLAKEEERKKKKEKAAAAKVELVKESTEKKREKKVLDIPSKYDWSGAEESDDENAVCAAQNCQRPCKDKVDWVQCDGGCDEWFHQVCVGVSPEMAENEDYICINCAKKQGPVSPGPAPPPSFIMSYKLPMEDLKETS
# Sequence of Lysine-specific demethylase 2A (Q9Y2K7 whole entry): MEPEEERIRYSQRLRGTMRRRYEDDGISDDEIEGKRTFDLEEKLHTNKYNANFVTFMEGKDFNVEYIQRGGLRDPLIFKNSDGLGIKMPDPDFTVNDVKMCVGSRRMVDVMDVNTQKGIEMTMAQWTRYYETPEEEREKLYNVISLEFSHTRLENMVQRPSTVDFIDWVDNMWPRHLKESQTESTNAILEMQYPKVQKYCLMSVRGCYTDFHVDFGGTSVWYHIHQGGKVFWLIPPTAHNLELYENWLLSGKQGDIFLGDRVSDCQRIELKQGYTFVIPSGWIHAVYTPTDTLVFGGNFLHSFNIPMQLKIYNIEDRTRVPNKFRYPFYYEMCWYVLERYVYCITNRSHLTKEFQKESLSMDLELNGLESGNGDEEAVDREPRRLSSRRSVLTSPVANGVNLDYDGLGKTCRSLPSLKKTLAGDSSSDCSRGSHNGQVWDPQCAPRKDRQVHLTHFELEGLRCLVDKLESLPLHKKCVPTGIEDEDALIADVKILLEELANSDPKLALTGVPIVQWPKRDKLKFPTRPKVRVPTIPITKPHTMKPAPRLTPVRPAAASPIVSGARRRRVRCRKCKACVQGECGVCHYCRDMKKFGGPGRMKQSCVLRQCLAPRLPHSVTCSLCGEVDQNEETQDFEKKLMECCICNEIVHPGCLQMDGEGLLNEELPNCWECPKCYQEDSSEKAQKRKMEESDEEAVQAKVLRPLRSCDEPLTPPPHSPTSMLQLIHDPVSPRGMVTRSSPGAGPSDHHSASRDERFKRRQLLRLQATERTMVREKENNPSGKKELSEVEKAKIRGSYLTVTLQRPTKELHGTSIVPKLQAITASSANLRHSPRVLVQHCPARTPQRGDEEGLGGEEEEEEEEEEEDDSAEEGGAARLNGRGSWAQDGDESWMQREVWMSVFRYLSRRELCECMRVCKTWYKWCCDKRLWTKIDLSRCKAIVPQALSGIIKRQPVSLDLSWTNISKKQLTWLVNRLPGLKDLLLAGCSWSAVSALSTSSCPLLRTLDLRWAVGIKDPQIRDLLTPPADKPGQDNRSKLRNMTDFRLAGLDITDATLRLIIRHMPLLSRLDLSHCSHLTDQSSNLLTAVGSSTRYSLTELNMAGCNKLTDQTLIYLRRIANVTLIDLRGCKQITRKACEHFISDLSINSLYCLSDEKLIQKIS
# Sequence of Lysine-specific demethylase 5C (P41229 whole entry, the tested form may be a part): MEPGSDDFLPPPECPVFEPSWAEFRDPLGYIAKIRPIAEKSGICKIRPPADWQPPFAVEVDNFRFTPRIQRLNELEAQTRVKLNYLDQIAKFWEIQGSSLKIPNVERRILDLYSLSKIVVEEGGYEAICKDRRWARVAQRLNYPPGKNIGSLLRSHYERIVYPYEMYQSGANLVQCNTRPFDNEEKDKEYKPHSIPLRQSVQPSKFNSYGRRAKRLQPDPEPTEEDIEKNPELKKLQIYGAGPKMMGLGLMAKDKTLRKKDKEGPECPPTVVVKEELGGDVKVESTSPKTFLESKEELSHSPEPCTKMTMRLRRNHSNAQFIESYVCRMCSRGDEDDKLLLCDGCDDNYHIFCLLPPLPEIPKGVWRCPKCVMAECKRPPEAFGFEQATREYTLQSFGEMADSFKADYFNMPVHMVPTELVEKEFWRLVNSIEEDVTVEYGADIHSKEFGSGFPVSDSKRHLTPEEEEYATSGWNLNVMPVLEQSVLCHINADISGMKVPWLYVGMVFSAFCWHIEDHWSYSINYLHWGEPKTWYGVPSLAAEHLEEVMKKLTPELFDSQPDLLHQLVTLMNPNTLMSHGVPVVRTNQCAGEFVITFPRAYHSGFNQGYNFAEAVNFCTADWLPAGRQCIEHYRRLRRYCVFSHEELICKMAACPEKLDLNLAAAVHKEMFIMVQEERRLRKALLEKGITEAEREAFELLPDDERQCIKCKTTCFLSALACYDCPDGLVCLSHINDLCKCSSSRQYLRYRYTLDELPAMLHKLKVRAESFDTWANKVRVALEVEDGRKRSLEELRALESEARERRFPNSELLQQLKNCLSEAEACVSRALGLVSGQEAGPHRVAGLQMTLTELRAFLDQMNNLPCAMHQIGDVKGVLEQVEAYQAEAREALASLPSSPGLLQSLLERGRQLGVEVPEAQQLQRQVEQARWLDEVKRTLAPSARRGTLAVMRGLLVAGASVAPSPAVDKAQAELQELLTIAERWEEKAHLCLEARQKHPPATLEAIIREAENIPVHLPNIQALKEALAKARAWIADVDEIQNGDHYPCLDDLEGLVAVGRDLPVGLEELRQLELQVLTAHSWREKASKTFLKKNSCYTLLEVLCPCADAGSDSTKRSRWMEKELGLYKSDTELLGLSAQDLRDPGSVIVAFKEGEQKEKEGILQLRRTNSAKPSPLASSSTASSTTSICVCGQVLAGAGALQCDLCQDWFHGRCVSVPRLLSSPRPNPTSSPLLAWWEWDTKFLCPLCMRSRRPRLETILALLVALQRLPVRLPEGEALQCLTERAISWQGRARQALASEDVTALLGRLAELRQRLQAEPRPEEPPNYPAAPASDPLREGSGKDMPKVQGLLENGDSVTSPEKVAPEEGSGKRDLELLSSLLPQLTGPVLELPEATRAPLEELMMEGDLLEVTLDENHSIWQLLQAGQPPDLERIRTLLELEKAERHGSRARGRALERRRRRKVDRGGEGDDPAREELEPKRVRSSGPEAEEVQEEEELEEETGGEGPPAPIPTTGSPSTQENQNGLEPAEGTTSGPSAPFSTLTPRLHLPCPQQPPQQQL
compound,measurement,setting,value
O=C(O)c1ccc(-n2nc(-c3ccccc3O)nc2-c2ccccc2O)cc1 [DEFERASIROX],IC50,[1],4.76 µM
same,IC50,[2],5 µM
same,IC50,[3],3.95 µM
Cc1c(O)c(=O)ccn1C [DEFERIPRONE],IC50,[4],6.8 µM
same,IC50,[5],8.1 µM
CCCCCCN(C)CCn1cc(-c2cc(C(=O)O)ccn2)nn1,IC50,[6],0.0088 µM
Cc1cc(O[C@H](C)C(=O)NCC(=O)NCC(=O)O)c2c3c(c(=O)oc2c1)CCC3,IC50,[7],0.0238 µM
same,IC50,[8],> 100 µM
